The source of these data is patent US20230255906A1, “Targeting Serpin B9 in Cancer” (The Brigham and Women`s Hospital, Inc., priority 2020, published 2023).

One assay deals with B16 melanoma cells. The assay can be described thus: Caspase-3 activity assay (EnzChek Caspase-3 Assay Kit), caspase-3 induction in tumor cells. Further: test concentration or dose not given here. The format is cell-based, mouse.
Conditions: not given
From the text: The EnzChek® Caspase-3 Assay Kit was used to detect apoptosis by assaying for increases in caspase-3 activities. The basis for the assay was rhodamine 110 bis-(N-CBZ-L-aspartyl-L-glutamyl-L-valyl-L-aspartic acid amide) (Z-DEVD-R110). This substrate is a bisamide derivative of rhodamine 110 (R110) containing DEVD peptides covalently linked to each of R110's amino groups, thereby suppressing the dye's visible absorption and its fluorescence. Upon enzymatic cleavage, the nonfluorescent bisamide substrate is converted in a two-step process first to a fluorescent monoamide and then to an even more fluorescent R110.
At least 1×10^6 cells of the lysate were used for each reaction. B16 cells were treated with compounds to induce apoptosis. A negative control was prepared by incubating cells in the absence of compounds. The cells were incubated with compounds for 24 hrs and washed in PBS. Each cell sample or control was resuspended in 50 μL of the 1×cell lysis buffer. Cells were lysed by incubating on ice for 30 minutes, and the lysed cells were centrifuged to pellet the cellular debris. 50 μL of the supernatant was transferred from each sample to individual microplate wells. 50 μL of the 1× cell lysis buffer was used as a no-enzyme control to determine the background fluorescence of the substrate. 50 μL of the 2×substrate working solution was added to each sample and control. The microplate was covered, and the samples were incubated at room temperature for approximately 30 minutes. The fluorescence was measured by a fluorescence microplate reader (excitation/emission ˜496/520 nm) using excitation and emission filters.
The ability of this small molecule inhibitor to inhibit intracellular Sb9 was then evaluated. As a marker for cell penetration, the induction of caspase-3 activity in B16 melanoma cells as a surrogate marker for increased GrB activity was measured.
The induction of caspase-3 activity in B16 melanoma cells as a surrogate marker for increased GrB activity was also measured for other small molecules (compounds of Formulas (V) and (VI) as described herein).
Regarding `COc1cccc(-c2nc3ccc(C(=O)NCC(C)(C)CO)cc3o2)c1` [N-(3-hydroxy-2,2-dimethylpropyl)-2-(3-methoxyphenyl)-1,3-benzoxazole-6-carboxamide], the “Ratio of caspase-3 activity to Formula (III)” value (shortened to “Ratio of caspase-3 activity”) worked out at 0.6716.
Same read-out and setting: the value for `COc1cccc(-c2nc3ccc(C(=O)N4CCN(Cc5cccnc5)CC4)cc3o2)c1` [2-(3-methoxyphenyl)-6-{[4-(3-pyridinylmethyl)-1-piperazinyl]carbonyl}-1,3-benzoxazole] was 0.1411; that for `COc1cccc(-c2nc3ccc(C(=O)N4CCOC(C(N)=O)C4)cc3o2)c1` (centres unmarked) [4-{[2-(3-methoxyphenyl)-1,3-benzoxazol-6-yl]carbonyl}morpholine-2-carboxamide] was 0.1611.
Turning to `CCN1CCN(C(=O)c2ccc3nc(-c4cccc(OC)c4)oc3c2)[C@@H](C)C1=O` [(3S)-1-ethyl-4-{[2-(3-methoxyphenyl)-1,3-benzoxazol-6-yl]carbonyl}-3-methyl-2-piperazinone], the “Ratio of caspase-3 activity” value is on record as 0.1434.
Turning to `O=C(c1ccc2nc(-c3ccccc3)oc2c1)N1CCC(O)CC1` [1-(2-phenyl-1,3-benzoxazole-6-carbonyl)piperidin-4-ol], the “Ratio of caspase-3 activity” value was determined as 1.327.
Take `COc1cccc(-c2nc3ccc(C(=O)N(C)Cc4c(C)n[nH]c4C)cc3o2)c1` [N-[(3,5-dimethyl-1H-pyrazol-4-yl)methyl]-2-(3-methoxyphenyl)-N-methyl-1,3-benzoxazole-6-carboxamide]: the “Ratio of caspase-3 activity” value was 0.1324.
On to `CCOC(=O)C1CCCN(C(=O)c2ccc3nc(-c4cccc(OC)c4)oc3c2)C1` (centres unmarked) [ethyl 1-{[2-(3-methoxyphenyl)-1,3-benzoxazol-6-yl]carbonyl}-3-piperidinecarboxylate], for which the “Ratio of caspase-3 activity” value is 0.1363.
As to `O=C(c1ccc2oc(-c3ccc(C(F)(F)F)cc3)nc2c1)N1CCOCC1` [5-(4-morpholinylcarbonyl)-2-[4-(trifluoromethyl)phenyl]-1,3-benzoxazole], the “Ratio of caspase-3 activity” value worked out at 0.1317.
Regarding `COc1cccc(-c2nc3ccc(C(=O)N(C)CC(O)c4ccccc4)cc3o2)c1` (centres unmarked) [N-(2-hydroxy-2-phenylethyl)-2-(3-methoxyphenyl)-N-methyl-1,3-benzoxazole-6-carboxamide], the “Ratio of caspase-3 activity” value turned out to be 0.1589.
`COc1cccc(-c2nc3ccc(C(=O)NCC4CCCCO4)cc3o2)c1` (centres unmarked) [2-(3-methoxyphenyl)-N-(tetrahydro-2H-pyran-2-ylmethyl)-1,3-benzoxazole-6-carboxamide]: the “Ratio of caspase-3 activity” value was 1.425.
For `O=C(NC1C=CS(=O)(=O)C1)c1ccc2oc(-c3cccc(F)c3)nc2c1` (centres unmarked) [N-(1,1-dioxido-2,3-dihydro-3-thienyl)-2-(3-fluorophenyl)-1,3-benzoxazole-5-carboxamide], the “Ratio of caspase-3 activity” value is reported as 0.09701.
On to `COCCOC1CCN(C(=O)c2ccc3oc(-c4cccc(F)c4)nc3c2)CC1` [2-(3-fluorophenyl)-5-{[4-(2-methoxyethoxy)-1-piperidinyl]carbonyl}-1,3-benzoxazole], for which the “Ratio of caspase-3 activity” value was found to be 0.1314.
Regarding `CCN(CC)C(=O)C1CCCN(C(=O)c2ccc3nc(-c4cccc(OC)c4)oc3c2)C1` (centres unmarked) [N,N-diethyl-1-{[2-(3-methoxyphenyl)-1,3-benzoxazol-6-yl]carbonyl}-3-piperidinecarboxamide], the “Ratio of caspase-3 activity” value came out at 0.1463.
The same measure, in the same setting: the value for `COc1cccc(-c2nc3ccc(C(=O)N4CCC(N(C)C)C4)cc3o2)c1` (centres unmarked) [1-{[2-(3-methoxyphenyl)-1,3-benzoxazol-6-yl]carbonyl}-N,N-dimethyl-3-pyrrolidinamine] was 0.9908.
Consider `O=C(NCCc1cn[nH]c1)c1ccc2oc(-c3cccc(F)c3)nc2c1` [2-(3-fluorophenyl)-N-[2-(1H-pyrazol-4-yl)ethyl]-1,3-benzoxazole-5-carboxamide], for which the “Ratio of caspase-3 activity” value was 0.4925.

The same assay, now with this note: relative to compound of Formula (III).
Regarding `O=C(Cc1ccc2ocnc2c1)NCc1ccccc1` [2-(1,3-benzoxazol-5-yl)-N-benzylacetamide], the “Caspase-3 induction, Normalized to Formula (III) (%)” value is given as −34.4942%.
For `O=C(c1ccc2nc(C(F)(F)C(F)(F)F)oc2c1)N1CCCC1` [2-(1,1,2,2,2-pentafluoroethyl)-6-(pyrrolidine-1-carbonyl)-1,3-benzoxazole], the “Caspase-3 induction, Normalized to Formula (III) (%)” value is −38.2832%.
As to `CCN(C)C(=O)c1ccc2ocnc2c1` [N-ethyl-N-methyl-1,3-benzoxazole-5-carboxamide], the “Caspase-3 induction, Normalized to Formula (III) (%)” value was −74.9828%.
Take `O=C(NC1CCCC1)c1ccc2nc(C3CCCCC3)oc2c1` [2-cyclohexyl-N-cyclopentyl-1,3-benzoxazole-6-carboxamide]: the “Caspase-3 induction, Normalized to Formula (III) (%)” value is on record as 26.2507%.
In the case of `CCN(C)C(=O)c1cccc2nc(N(C)C)oc12` [2-(dimethylamino)-N-ethyl-N-methyl-1,3-benzoxazole-7-carboxamide], the “Caspase-3 induction, Normalized to Formula (III) (%)” value is listed as −30.9946%.
Still for that read-out and setting: the value for `COCCCNC(=O)c1cccc2nc(N(C)C)oc12` [2-(dimethylamino)-N-(3-methoxypropyl)-1,3-benzoxazole-7-carboxamide] was −39.581%.
With `Cc1cc(O)c(O)cc1C(=O)NCC(C)C` [4,5-dihydroxy-2-methyl-N-(2-methylpropyl)benzamide], the “Caspase-3 induction, Normalized to Formula (III) (%)” value was −27.9096%.
The same measure, in the same setting: the value for `COCCCNC(=O)c1ccc2nc(C3CCCCC3)oc2c1` [2-cyclohexyl-N-(3-methoxypropyl)-1,3-benzoxazole-6-carboxamide] was −42.1813%.
For `O=C(NCc1ccccc1)c1ccc2nc(C3CCCCC3)oc2c1` [N-benzyl-2-cyclohexyl-1,3-benzoxazole-6-carboxamide], the “Caspase-3 induction, Normalized to Formula (III) (%)” value was −61.2418%.
Consider `CCOc1ccc(C(=O)N(C)CC)cc1O` [4-ethoxy-N-ethyl-3-hydroxy-N-methylbenzamide], for which the “Caspase-3 induction, Normalized to Formula (III) (%)” value is on record as −69.889%.
Still for that read-out and setting: the value for `COc1cc(C(=O)NCc2ccccc2)cc(OC)c1O` [N-benzyl-4-hydroxy-3,5-dimethoxybenzamide] was −17.7065%.
Same read-out and setting: the value for `CCN(C)C(=O)c1ccc2nc(C3CCCCC3)oc2c1` [2-cyclohexyl-N-ethyl-N-methyl-1,3-benzoxazole-6-carboxamide] was 1.1915%; that for `O=C(Cc1ccc2ocnc2c1)NC1CCCC1` [2-(1,3-benzoxazol-5-yl)-N-cyclopentylacetamide] was −4.02%.
The same measure, in the same setting: the value for `CCN(C)C(=O)c1ccc(O)c(OC)c1` [N-ethyl-4-hydroxy-3-methoxy-N-methylbenzamide] was −33.3917%; that for `CC(C)CNC(=O)c1cc2c(cc1O)OCO2` [6-hydroxy-N-(2-methylpropyl)-2H-1,3-benzodioxole-5-carboxamide] was −31.2294%.
Regarding `CCN(C)C(=O)c1ccc2nc(C3CCCO3)oc2c1` (centres unmarked) [N-ethyl-N-methyl-2-(oxolan-2-yl)-1,3-benzoxazole-6-carboxamide], the “Caspase-3 induction, Normalized to Formula (III) (%)” value was 8.3538%.
On the same count and under the same terms, the value for `CCN(C)C(=O)c1ccc2nc(-c3cc(Cl)cc(Cl)c3)oc2c1` [2-(3,5-dichlorophenyl)-N-ethyl-N-methyl-1,3-benzoxazole-6-carboxamide] was −85.6535%.
